Data as given in patent publication US8409820B2, “Kinase sensors” (Massachusetts Institute of Technology, priority 2009, dated 2013).

Legend:
Format in all cases: physicochemical
[1] = Observation of oxidation of the chromophore
[2] = Fluorescence analysis of 8-hydroxyquinoline derivatives in the presence of excess Mg2+ under buffered aqueous conditions; conditions: 10 μM compound; for λem / λex: 10 mM MgCl2, 150 mM NaCl, 50 mM HEPES (pH 7.4), 25° C.
Description: (§1) This example describes the synthesis and screening of Oxn derivatives. A selection of substituted hydroxyquinoline derivatives related to a sulfonamide derivative (FIG. 1, complex 1), but bearing different acceptor groups at position 5 (FIG. 1, complexes 2-7) was prepared using previously described methods. These analogs were screened for fluorescence in the presence of excess Mg^2+ and under buffered aqueous conditions. FIG. 1 lists fluorescence data for compounds 1-7. Spectra were acquired in 150 mM NaCl, 50 mM HEPES (pH 7.4), 25° C. with 10 μM 1-7 and 10 mM MgCl2. Excitation of all species is provided at λmax […].
Azide 8 (FIG. 2) was prepared using previously reported methods. […] In the presence of catalytic Cu(I) and ascorbic acid, 8 reacted readily at room temperature with 1-ethynylcyclohexene (9a) in DMF/4-methylpiperidine (8:2) to afford the cycloaddition product 10a in essentially quantitative yield. […] The fluorescence properties of the triazole-substituted quinolines were investigated for the products from the 1,3-dipolar cycloaddition reaction of 8 with 21 additional alkynes (9b-v) (FIG. 2).
(§2) The fluorophores were then qualitatively compared in a 96-well plate (transilluminator; λex=365 nm) to identify promising compounds (FIG. 3) and were further subjected to quantitative analysis in a fluorescence plate reader (FIG. 8). In FIG. 8, the quantum yields of selected fluorophores were calculated with reference to quinine sulphate (in […] H2SO4) as a standard (vide infra). Compound 10u has ε355=7905 cm^−1M^−1 (vide infra). The excitation and emission wavelengths of the triazole products (10b-v, λex=360-375 nm, λem=510-530 nm) were improved compared to those for Sox (1, λex=360 nm, λem=485 nm, Φ=0.342, ε355=8,247 cm^−1M^−1). Based on the preliminary screening, selected targets were then synthesized in larger quantities and the quantum yields of the corresponding hydroxyquinoline derivatives were determined. Compared to 10a (Φ=0.033) a 3.5-fold improvement in quantum yield was obtained in the case of the bromide 10u (λex=375 nm, λem=525 nm, Φ=0.111, ε355=7,905 cm^−1M^−1). In view of the fluorescent properties of this derivative, it was chosen for use as a chelation-sensitive fluorophore to prepare probes for mitogen-activated protein kinase-activated protein kinase-2 (MK2), and sarcoma kinase (Src), used as models of Ser/Thr and Tyr kinases, respectively. For the purposes of comparison, the analogous fluorescent peptides containing the original Sox chromophore were also prepared as previously described.
Fluorescence Experiments. • a. Fluorescence analysis of 8-hydroxyquinoline click products. A 96-well microtier plate was used in the experiments for preliminary examination of fluorescence properties. The overall volume in each well was 200 microliters. Individual reactions contained the crude product from the click chemistry reaction (10 micromolar dissolved in DMSO), MgCl2 (10 mM), NaCl (150 mM) and HEPES (50 mM) at 25° C. (pH 7.4). The fluorescence spectra were recorded with fixed excitation at 370 nm and emission at 525 nm. Based on the preliminary screening, selected products were then synthesized in larger quantities and the quantum yields of the corresponding hydroxyquinoline derivatives were determined.

[3] = Quantum yield determination (quinine sulphate standard); conditions: for quantum yield Φ: with reference to quinine sulphate, 4 micromolar oxine derivative, 50 mM MgCl2, 20 mM HEPES (pH 7.4)
Description: as §1, §2
c. Quantum yield determination. The quantum yield (Φ) was determined in 20 mM HEPES (pH 7.4). Quinine sulphate dihydrate (QS, Fluka, puriss. for fluorescence) in 0.1 M H2SO4 was used as a standard (Φ=0.55). A 4 micromolar solution of the corresponding oxine derivative with 50 mM MgCl2 was compared to a 4 micromolar solution of quinine sulfate to assure that the absorbance (A360) is less than 0.05 at identical excitation wavelengths. The following equation was used to calculate the quantum yield: Φ=IAQSΦQS/AIQS where A=A360 and I=integrated fluorescence intensity (λex=360 nm). The calculated Φ assumes that the refractive index of 0.1 M H2SO4 is identical to that of 20 mM HEPES (pH 7.4). […]

[4] = Extinction coefficient determination
Description: 1. Stock solutions of the peptides were prepared in doubly deionized water and concentrations were determined by UV-Vis (based on the determined extinction coefficient of the fluorophore moiety, either 1 (Sox), ε355=8247 M^−1 cm^−1 or 10u (Clk), ε360=7905 M^−1 cm^−1 in 0.1 M NaOH with 1 mM Na2EDTA). An average of the values from three separate solutions, each prepared using a different volume of the stock solution, was read on UV-Vis spectrophotometer. Purified peptide stock solutions could be stored at 4° C. for at least 6 months or −20° C. for longer periods.
b. Extinction coefficient determination. Extinction coefficients of 1 and 10u were measured in 50 mM HEPES (pH 7.0), 150 mM NaCl. The εmax values were determined by plotting absorbance at 360 nm versus concentration for four chromophore solutions with concentrations between 20 and 60 micromolar and including 1 mM MgCl2.

| Compound | stability of the aldehyde group (in words) [1] | excitation and emission wavelengths compared with 1 (in words) ([2]; 10 mM MgCl2, pH 7.4) | quantum yield compared with 1 (in words) ([3]; 10 μM compound, 10 mM MgCl2, pH 7.4) | λem [2] | λex [2] | quantum yield Φ [3] | extinction coefficient ε355 ([4]; Example 1, 50 mM HEPES (pH 7.0), 150 mM NaCl, 1 mM MgCl2) | extinction coefficient ε360 ([4]; in 0.1 M NaOH with 1 mM Na2EDTA) | improvement in quantum yield compared to 10a ([3]; compared to 10a (Φ=0.033)) |
| --- | --- | --- | --- | --- | --- | --- | --- | --- | --- |
| Cc1ccc2c(C=O)ccc(O)c2n1 [Compound 2, 5-Carbaldehyde-8-Hydroxy-2-methylquinoline, reference compound] | readily oxidized | shorter λem | improved quantum yield |  |  |  |  |  |  |
| Oc1ccc(-n2cc(C3=CCCCC3)nn2)c2cccnc12 [Compound 10a, 8-Hydroxy-5-(4-cyclohexenyl-1H-1,2,3-triazol-1-yl)quinoline] |  |  |  | 522 nm | 371 nm | 0.033 |  |  |  |
| Oc1ccc(-n2cc(-c3ccc(Br)cc3)nn2)c2cccnc12 [Compound 10u, 8-Hydroxy-5-(4-(4-bromophenyl)-1H-1,2,3-triazol-1-yl)quinoline] |  |  |  | 525 nm | 375 nm | 0.111 | 7,905 cm^−1M^−1 | 7905 M⁻¹ cm⁻¹ | 3.5 fold |
